Results from patent publication US4563527A, “Amidine compounds” (Torii & Co., Ltd., priority 1984, dated 1986).
Like-named read-outs stand apart in the source and are kept apart here.

Assays:
complement = experiment: Inhibition of complement mediated hemolysis; type: cell-based
Protocol: The complement mediated hemolysis is widely used as a means to determine the titration of complement. The principle of this method is based on the fact that hemolysis is caused by the activation of complement, when the latter is added to a complex (immune complex) of erythrocytes and the antibody thereof. The degree of hemolysis varies in proportion to the amount of complement added. Therefore, when a known amount of complement admixed with a C1 esterase inhibitor is used, the hemolysis must be suppressed in proportion to the inhibitory activity.
The anti-C1 esterase (C1r, C1s) activity was determined according to the method of Okamura et al. [K. Okamura, M. Muramatsu and B. Fujii, Biochem. Biophys. […] The figures in Table 2 have the following meanings: […]

C1r = biological target: T1, C1r (Homo sapiens, UniProt P00736); experiment: biochemical; conditions: read-out: ID50 C1r (Anti-C1 activity)
T1 sequence (P00736 464-705 limits assumed): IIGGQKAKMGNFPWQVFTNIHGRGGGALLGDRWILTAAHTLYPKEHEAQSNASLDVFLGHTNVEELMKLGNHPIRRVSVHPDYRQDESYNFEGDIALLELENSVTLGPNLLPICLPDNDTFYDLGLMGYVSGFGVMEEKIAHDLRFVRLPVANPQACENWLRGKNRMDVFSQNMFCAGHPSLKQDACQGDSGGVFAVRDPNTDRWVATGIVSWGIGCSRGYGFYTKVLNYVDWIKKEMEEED
T1 sequence (P00736 18-463 partner limits assumed): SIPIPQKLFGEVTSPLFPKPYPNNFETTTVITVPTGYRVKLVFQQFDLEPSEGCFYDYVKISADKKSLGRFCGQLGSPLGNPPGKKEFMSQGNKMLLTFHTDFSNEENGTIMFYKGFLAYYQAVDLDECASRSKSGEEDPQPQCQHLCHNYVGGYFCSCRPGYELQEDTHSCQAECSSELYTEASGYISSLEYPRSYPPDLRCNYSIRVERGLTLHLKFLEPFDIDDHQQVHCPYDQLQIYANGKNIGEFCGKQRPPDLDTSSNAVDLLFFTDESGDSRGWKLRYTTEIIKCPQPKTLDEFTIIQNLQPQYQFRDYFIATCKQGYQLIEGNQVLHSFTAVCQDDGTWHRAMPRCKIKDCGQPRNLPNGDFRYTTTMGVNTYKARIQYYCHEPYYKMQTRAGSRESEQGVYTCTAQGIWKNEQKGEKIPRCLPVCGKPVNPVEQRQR

Plasmin = Plasmin (Homo sapiens, UniProt P00747); experiment: Anti-plasmin activity (hydrolysis of TAME); type: biochemical; conditions: for IC50: molar concentration inhibiting 50% of TAME hydrolysis, read-out: ID50 plasmin
Protocol: The anti-trypsin, anti-plasmin, anti-kallikrein and anti-thrombin activities were determined according to the method of Muramatsu et al. [M. Muramatus, T. Onishi, S. Makino, Y. Hayashi and S. Fujii, J. of Biochem., 58, 214 (1965)]. […] The compound No. corresponds to the compound number shown in Examples.

C1s = biological target: T2, C1s (Homo sapiens, UniProt P09871); experiment: Anti-C1s activity (hydrolysis of ATEE); type: biochemical; conditions: molar concentration inhibiting 50% of ATEE hydrolysis; read-out: ID50 C1s (Anti-C1 activity)
T2 sequence (P09871 438-688 limits assumed): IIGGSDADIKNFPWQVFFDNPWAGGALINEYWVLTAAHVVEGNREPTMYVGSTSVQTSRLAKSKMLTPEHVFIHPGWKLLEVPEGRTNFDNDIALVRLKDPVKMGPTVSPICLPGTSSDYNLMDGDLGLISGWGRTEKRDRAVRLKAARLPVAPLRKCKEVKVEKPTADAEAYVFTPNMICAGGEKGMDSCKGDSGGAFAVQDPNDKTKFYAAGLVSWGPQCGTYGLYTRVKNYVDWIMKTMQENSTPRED
T2 sequence (P09871 16-437 partner limits assumed): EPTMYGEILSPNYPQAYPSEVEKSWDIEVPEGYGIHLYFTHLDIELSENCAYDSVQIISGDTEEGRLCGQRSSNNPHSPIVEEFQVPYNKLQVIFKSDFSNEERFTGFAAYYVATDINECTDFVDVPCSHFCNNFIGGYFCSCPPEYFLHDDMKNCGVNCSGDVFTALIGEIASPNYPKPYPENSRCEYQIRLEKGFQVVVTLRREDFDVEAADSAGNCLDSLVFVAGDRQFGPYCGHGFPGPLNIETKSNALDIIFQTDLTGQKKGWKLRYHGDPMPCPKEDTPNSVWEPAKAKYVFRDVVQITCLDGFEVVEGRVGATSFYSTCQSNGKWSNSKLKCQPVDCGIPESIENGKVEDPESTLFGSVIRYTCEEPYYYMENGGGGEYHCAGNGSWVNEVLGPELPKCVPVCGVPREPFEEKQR
Protocol: The anti-C1 esterase (C1r, C1s) activity was determined according to the method of Okamura et al. [K. Okamura, M. Muramatsu and B. Fujii, Biochem. Biophys. Acta, 295, 252-257 (1973)]. The inhibition of complement mediated hemolysis was determined according to the method of Baker et al. [B. R. Baker and E. H. Erickson, J. Med. Chem. 12, 408-414 (1969)]. The figures in Table 2 have the following meanings:
C1s: Molar concentration of the test compound which inhibits 50% of the ability of C1s to hydrolyse ATEE (acetyltyrosin ethyl ester) (ID50).

Thrombin = Thrombin (Homo sapiens, UniProt P00734); experiment: biochemical; conditions: molar concentration inhibiting 50% of TAME hydrolysis; read-out: ID50 thrombin
Trypsin = biological target: T3, Trypsin (Bos taurus, UniProt P00760); experiment: Anti-trypsin activity (hydrolysis of TAME); type: biochemical; conditions: molar concentration inhibiting 50% of TAME hydrolysis; read-out: ID50 trypsin
T3 sequence (P00760 24-246): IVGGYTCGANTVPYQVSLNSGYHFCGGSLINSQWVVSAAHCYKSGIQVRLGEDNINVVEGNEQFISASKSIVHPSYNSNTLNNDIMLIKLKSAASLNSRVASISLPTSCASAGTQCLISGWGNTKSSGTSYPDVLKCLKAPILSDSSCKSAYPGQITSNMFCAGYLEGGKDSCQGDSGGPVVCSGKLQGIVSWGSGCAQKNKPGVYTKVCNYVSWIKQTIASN
Protocol: (§1) The anti-trypsin, anti-plasmin, anti-kallikrein and anti-thrombin activities were determined according to the method of Muramatsu et al. [M. Muramatus, T. Onishi, S. Makino, Y. Hayashi and S. Fujii, J. of Biochem., 58, 214 (1965)]. The data summarized in Table 1 are expressed in terms of molar concentration (ID50) of the test compound which inhibits 50% of the activity of each enzyme to hydrolyze TAME (tosylalginine methyl ester). The compound No. corresponds to the compound number shown in Examples.

Kallikrein = experiment: Anti-kallikrein activity (hydrolysis of TAME); type: biochemical; conditions: for IC50: molar concentration inhibiting 50% of TAME hydrolysis, read-out: ID50 kallikrein
Protocol: as §1

[1] = molar concentration inhibiting 50% of AAME hydrolysis

Chain of Plasmin (P00747 581-810 limits assumed, species assumed): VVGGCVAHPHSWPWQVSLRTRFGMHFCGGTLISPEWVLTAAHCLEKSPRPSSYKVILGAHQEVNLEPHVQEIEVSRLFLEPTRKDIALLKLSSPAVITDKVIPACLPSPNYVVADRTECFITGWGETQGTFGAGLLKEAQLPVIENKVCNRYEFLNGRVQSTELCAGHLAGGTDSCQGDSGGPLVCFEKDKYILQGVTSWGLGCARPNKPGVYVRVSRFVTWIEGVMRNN
Chain of Plasmin (P00747 97-580 partner limits assumed, species assumed): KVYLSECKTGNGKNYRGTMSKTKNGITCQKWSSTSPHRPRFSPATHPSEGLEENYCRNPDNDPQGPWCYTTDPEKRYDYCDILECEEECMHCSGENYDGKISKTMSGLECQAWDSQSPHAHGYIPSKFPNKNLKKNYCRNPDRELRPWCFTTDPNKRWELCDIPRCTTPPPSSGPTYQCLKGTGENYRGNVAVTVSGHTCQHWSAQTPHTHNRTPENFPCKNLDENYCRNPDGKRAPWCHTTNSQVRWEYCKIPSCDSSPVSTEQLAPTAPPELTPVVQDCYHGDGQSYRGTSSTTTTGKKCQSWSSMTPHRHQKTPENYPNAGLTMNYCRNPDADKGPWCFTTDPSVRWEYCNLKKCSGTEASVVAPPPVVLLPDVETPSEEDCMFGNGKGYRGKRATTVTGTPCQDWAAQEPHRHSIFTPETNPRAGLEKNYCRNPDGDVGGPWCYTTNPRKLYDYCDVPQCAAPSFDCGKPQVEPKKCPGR

Row | SMILES | Inhibition of complement mediated hemolysis (%) (complement; 1 × 10^-5) | Inhibition of complement mediated hemolysis (%) (complement; 1 × 10^-6) | Inhibition of complement mediated hemolysis (%) (complement; 1 × 10^-7) | IC50 (C1r; [1]) | IC50 (Plasmin) | IC50 (C1s) | IC50 (Thrombin) | IC50 (Trypsin) | IC50 (Kallikrein) | inhibition at 10 µM (Plasmin; figure in parentheses, at 1×10^-5 M, TAME, read-out: percentage inhibition of plasmin) | percentage inhibition of kallikrein (Kallikrein; figure in parentheses, at 1×10^-5 M, TAME) | IC50 (C1r)
1 | CN=C(NC)NCc1ccc(C(=O)Oc2ccc3cc(C(=N)N)ccc3c2)o1 [Compound No. 2, 6-amidino-2-naphthyl 5-(2,3-dimethyl)guanidinomethyl-furan-2-carboxylate] | 100% | 100% | 91% | 1000 nM | 800 nM | 1000 nM | 900 nM | 2000 nM |  |  |  | 
2 | N=C(N)Nc1ccc(C(=O)Oc2ccc3cc(C(=N)N)ccc3c2)o1 [Compound No. 3] | 100% | 100% | 99% | 700 nM | 500 nM | 300 nM | 300 nM | 100 nM | 900 nM |  |  | 
3 | CN(C(=N)N)c1ccc(C(=O)Oc2ccc3cc(C(=N)N)ccc3c2)o1 [compound 4] | 100% | 100% | 59% | 2000 nM |  | 300 nM | 8000 nM | 4000 nM | 6000 nM | 42% |  | 
4 | CNC(=N)Nc1ccc(C(=O)Oc2ccc3cc(C(=N)N)ccc3c2)o1 [compound 5] | 100% | 100% | 96% | 1000 nM | 500 nM | 300 nM | 200 nM | 300 nM | 500 nM |  |  | 
5 | CNC(=N)NCc1ccc(C(=O)Oc2ccc3cc(C(=N)N)ccc3c2)o1 [compound 6] | 100% | 100% | 100% | 500 nM | 3000 nM | 1000 nM | 2000 nM | 4000 nM | 400 nM |  |  | 
6 | CCNC(=NC)NCc1ccc(C(=O)Oc2ccc3cc(C(=N)N)ccc3c2)o1 [compound 7] | 100% | 100% | 98% | 1000 nM | 700 nM | 2000 nM | 2000 nM | 2000 nM | 400 nM |  |  | 
7 | CCN=C(NCC)NCc1ccc(C(=O)Oc2ccc3cc(C(=N)N)ccc3c2)o1 [compound 8] | 100% | 100% | 98% | 800 nM | 800 nM | 2000 nM | 1000 nM | 2000 nM | 400 nM |  |  | 
8 | N=C(N)NCCc1ccc(C(=O)Oc2ccc3cc(C(=N)N)ccc3c2)o1 [compound 9] | 100% | 100% | 94% | 400 nM | 6000 nM | 3000 nM | 1000 nM | 900 nM |  |  | 47% | 
9 | N=C(N)c1ccc2cc(OC(=O)c3ccc(NC4=NCCN4)o3)ccc2c1 [compound 10] | 100% | 100% | 91% | 5000 nM | 3000 nM | 300 nM | 200 nM | 40 nM | 400 nM |  |  | 
10 | N=C(N)c1ccc2cc(OC(=O)c3ccc(CNC4=NCCN4)o3)ccc2c1 [compound 11] | 100% | 100% | 43% | 500 nM | 2000 nM | 500 nM | 400 nM | 3000 nM | 400 nM |  |  | 
11 | CN(C)CC(=O)NCc1ccc(C(=O)Oc2ccc3cc(C(=N)N)ccc3c2)o1 [compound 14] | 100% | 100% | 28% | 700 nM | 2000 nM | 300 nM | 700 nM | 1000 nM | 500 nM |  |  | 
12 | N=C(N)Nc1ccc(C(=O)NCc2ccc(C(=O)Oc3ccc4cc(C(=N)N)ccc4c3)o2)cc1 [compound 15] | 100% | 100% | 99% |  | 300 nM | 400 nM | 600 nM | 200 nM | 400 nM |  |  | 300 nM
13 | N=C(N)c1ccc2cc(OC(=O)c3ccc(CNC(=O)CCNC(=O)OCc4ccccc4)o3)ccc2c1 [compound 20] | 100% | 98% | 43% |  |  |  |  |  |  |  |  | 
14 | N=C(N)c1ccc2cc(OC(=O)c3ccc(CNC(=O)CCN)o3)ccc2c1 [compound 34] | 100% | 100% | 58% | 500 nM | 2000 nM | 500 nM | 500 nM |  | 300 nM |  |  | 
